In patent publication US11655235B2, “Pyrrolidine and piperidine compounds” (YUHAN CORPORATION, priority 2019, dated 2023):

Tests used:
Assay type in all cases: biochemical
Recombinant human FAP = molecular target: T1, Recombinant human FAP (Homo sapiens, UniProt Q12884); assay: FAP FRET assay, FGF21-sequence FRET peptide substrate; conditions: FRET peptide with human FGF21 sequence, 6 μM, 37° C.
T1 construct: purchased R&D systems
T1 sequence (Q12884 1-760): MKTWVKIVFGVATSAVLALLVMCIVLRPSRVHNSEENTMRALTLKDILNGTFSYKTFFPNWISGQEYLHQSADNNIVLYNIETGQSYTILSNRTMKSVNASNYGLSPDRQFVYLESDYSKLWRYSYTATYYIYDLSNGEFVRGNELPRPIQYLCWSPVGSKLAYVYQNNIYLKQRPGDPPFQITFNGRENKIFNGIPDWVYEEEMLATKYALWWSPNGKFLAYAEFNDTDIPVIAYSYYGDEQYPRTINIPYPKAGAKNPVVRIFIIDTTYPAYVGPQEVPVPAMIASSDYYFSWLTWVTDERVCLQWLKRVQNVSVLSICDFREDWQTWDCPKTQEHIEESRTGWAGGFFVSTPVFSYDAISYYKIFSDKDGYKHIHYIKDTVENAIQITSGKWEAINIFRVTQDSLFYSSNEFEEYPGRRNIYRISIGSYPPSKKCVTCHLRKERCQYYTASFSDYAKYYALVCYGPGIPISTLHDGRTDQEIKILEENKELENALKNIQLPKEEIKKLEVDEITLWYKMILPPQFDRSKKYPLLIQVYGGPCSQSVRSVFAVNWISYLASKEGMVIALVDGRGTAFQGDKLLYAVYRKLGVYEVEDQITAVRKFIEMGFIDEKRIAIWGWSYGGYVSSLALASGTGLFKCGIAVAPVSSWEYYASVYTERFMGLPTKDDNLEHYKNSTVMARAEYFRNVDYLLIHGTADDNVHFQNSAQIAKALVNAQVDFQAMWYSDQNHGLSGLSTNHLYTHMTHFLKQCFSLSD
Outline: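 FRET peptide bearing human FGF21 sequence (6 μM final) cleaved by 10 ng recombinant human FAP at 37° C in HEPES pH 7.2 buffer with NaCl, BSA and EDTA, DMSO up to 0.1%. Signal-rate decrease versus uninhibited control fitted to a four-variable logistic model for IC50.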

DPP4 = DPP4 (Homo sapiens, UniProt P27487); assay: DPP4 inhibition, fluorogenic substrate H-Gly-Pro-AMC; design: purchased R&D Systems; conditions: recombinant human DPP4
recombinant human DPP7 = molecular target: T2, recombinant human DPP7 (Homo sapiens, UniProt Q9UHL4); assay: DPP7 inhibition, fluorogenic substrate Lys-Pro-AMC; conditions: recombinant human DPP7
T2 construct: purchased R&D Systems
Protocol: The compounds according to the present technology were evaluated in terms of the inhibitory effect on the activity of dipeptidyl peptidases including FAP by using a substrate producing fluorescent substances upon enzymatic decomposition. The test was conducted at 25° C. to get a final reaction volume of 100 μL in a 96 black well plate. […] Briefly, the test compounds were dissolved in dimethyl sulfoxide (DMSO) at a concentration of 20 mM and then subjected to serial dilution, thereby creating an 8 point curve. As for the control group, a 6 point curve created by serial dilution of Talabostat in the same buffer solution was used. Fluorescence intensity was measured using a microplate reader (Flexstation3, Molecular Devices) under the wavelength condition exciting at 380 nm and reading the emission at 460 nm. The inhibitory effect of the test compounds was measured as a decrease (%) in the signal rate as compared to the control group without any inhibitor. Data was fixed to a logistic model with four variables and IC50 value was calculated using GraphPad Prism program. As for recombinant human DPP4 (R&D Systems), 25 mM tris (pH 8.0) buffer as a buffer solution and H-Gly-Pro-AMC (Bachem) as a substrate were used. As for recombinant human DPP7 (R&D Systems), 25 mM MES (pH 6.0) buffer as a buffer solution and Lys-Pro-AMC (Bachem) as a substrate were used. As for recombinant human DPP8 (PBS Bioscience), as a buffer solution, a 10 mM tris (pH 7.4) buffer comprising 10 mM of magnesium chloride and 0.05% of Tween 20, and Z-Ala-Pro-AMC (BPS Bioscience) as a substrate were used. As for recombinant human DPP9 (R&D Systems), a 25 mM tris (pH 8.0) buffer as a buffer solution and H-Gly-Pro-AMC (Bachem) as a substrate were used. As for recombinant human PREP (R&D System), as a buffer solution, a 25 mM tris (pH 7.5) buffer comprising 250 mM sodium chloride and 2.5 mM DTT (Dithiolthreitol), and Z-Gly-Pro-AMC (Bachem) as a substrate were used. The evaluation was made by using 10 ng of DPP4, PDD7, and PREP, 20 ng of DPP8, and 50 ng of DPP9 based on the final reaction. In the evaluation of DPP4, the test compounds were subjected to serial dilution in a buffer under the condition containing up to 0.1% of DMSO. In the evaluation of DPP7, DPP8, DPP9, and PREP, the test compounds were subjected to serial dilution in each buffer under the condition containing up to 0.5% of DMSO.

DPP4, sequence (P27487 whole entry): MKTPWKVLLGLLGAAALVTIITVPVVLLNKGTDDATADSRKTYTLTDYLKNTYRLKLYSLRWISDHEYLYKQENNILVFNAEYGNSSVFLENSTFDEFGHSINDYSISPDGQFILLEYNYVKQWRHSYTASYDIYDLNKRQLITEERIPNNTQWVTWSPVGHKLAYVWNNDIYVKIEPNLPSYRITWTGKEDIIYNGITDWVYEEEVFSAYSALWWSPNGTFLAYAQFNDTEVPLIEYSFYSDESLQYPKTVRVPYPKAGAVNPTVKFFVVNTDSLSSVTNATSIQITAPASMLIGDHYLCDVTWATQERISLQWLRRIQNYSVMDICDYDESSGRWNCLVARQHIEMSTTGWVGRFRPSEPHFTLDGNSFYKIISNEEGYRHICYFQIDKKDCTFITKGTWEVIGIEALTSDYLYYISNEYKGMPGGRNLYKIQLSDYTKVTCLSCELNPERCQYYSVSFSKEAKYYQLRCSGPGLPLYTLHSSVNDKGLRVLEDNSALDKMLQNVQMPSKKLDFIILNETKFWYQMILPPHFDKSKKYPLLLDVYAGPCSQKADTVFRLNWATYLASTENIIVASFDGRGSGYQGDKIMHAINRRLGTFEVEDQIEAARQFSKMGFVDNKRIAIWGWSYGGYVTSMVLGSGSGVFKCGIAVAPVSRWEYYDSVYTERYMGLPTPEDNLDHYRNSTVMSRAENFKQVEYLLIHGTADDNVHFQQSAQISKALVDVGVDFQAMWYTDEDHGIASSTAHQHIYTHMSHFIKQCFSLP

Row | IC50 (Recombinant human FAP) [nM] | IC50 (DPP4) [nM] | IC50 (recombinant human DPP7) [nM] | SMILES
1 | 67.5 | 3890 | – | CN(Cc1ccccc1)C(=O)c1cnc2cccc(NC3CCN(CC(=O)N4C[C@@H](F)C[C@H]4C#N)CC3)c2c1 [Example 389, N-benzyl-N-methyl-5-[[1-[2-oxo-2-[(2S,4S)-2-cyano-4-fluoro-pyrrolidin-1-yl]ethyl]-4-piperidyl]amino]quinoline-3-carboxamide]
2 | 27.5 | 3500 | – | CN(C)C(=O)c1ccc(NC2CCN(CC(=O)N3C[C@@H](F)C[C@H]3C#N)CC2)c2cccnc12 [Example 391, N,N-dimethyl-5-[[1-[2-oxo-2-[(2S,4S)-2-cyano-4-fluoro-pyrrolidin-1-yl]ethyl]-4-piperidyl]amino]quinoline-8-carboxamide]
3 | 50.6 | 2070 | – | CN(C(=O)c1ccc(NC2CCN(CC(=O)N3C[C@@H](F)C[C@H]3C#N)CC2)c2cccnc12)c1ccccc1 [Example 392, N-methyl-5-[[1-[2-oxo-2-[(2S,4S)-2-cyano-4-fluoro-pyrrolidin-1-yl]ethyl]-4-piperidyl]amino]-N-phenyl-quinoline-8-carboxamide]
4 | 43.8 | 3310 | – | CN(Cc1ccccc1)C(=O)c1ccc(NC2CCN(CC(=O)N3C[C@@H](F)C[C@H]3C#N)CC2)c2cccnc12 [Example 393, N-benzyl-N-methyl-5-[[1-[2-oxo-2-[(2S,4S)-2-cyano-4-fluoro-pyrrolidin-1-yl]ethyl]-4-piperidyl]amino]quinoline-8-carboxamide]
5 | 18.6 | 6040 | – | CNC(=O)c1ccc(NC2CCN(CC(=O)N3CCC[C@H]3C#N)CC2)c2cccnc12 [Example 395, N-methyl-5-[[1-[2-oxo-2-[(2S)-2-cyanopyrrolidin-1-yl]ethyl]-4-piperidyl]amino]quinoline-8-carboxamide]
6 | 38.9 | 28500 | – | CN(Cc1ccccc1)C(=O)c1ccc(NC2CCN(CC(=O)N3CCC[C@H]3C#N)CC2)c2cccnc12 [Example 397, N-benzyl-N-methyl-5-[[1-[2-oxo-2-[(2S)-2-cyanopyrrolidin-1-yl]ethyl]-4-piperidyl]amino]quinoline-8-carboxamide]
7 | 98.6 | 14000 | – | CN(C(=O)c1ccc(NC2CCN(CC(=O)N3CCC[C@H]3C#N)CC2)c2cccnc12)c1ccccc1 [Example 398, N-methyl-5-[[1-[2-oxo-2-[(2S)-2-cyanopyrrolidin-1-yl]ethyl]-4-piperidyl]amino]-N-phenyl-quinoline-8-carboxamide]
8 | 12.8 | 8190 | – | CC(=O)Nc1ccc(NC2CCN(CC(=O)N3CCC[C@H]3C#N)CC2)c2cccnc12 [Example 408, N-[5-[[1-[2-oxo-2-[(2S)-2-cyanopyrrolidin-1-yl]ethyl]-4-piperidyl]amino]-8-quinolyl]acetamide]
9 | 17.3 | 32600 | – | N#C[C@@H]1CCCN1C(=O)CN1CCC(Oc2ccnc3cc(Cl)ccc23)CC1 [Example 428, (2S)-1-[2-[4-[(7-chloro-4-quinolyl)oxy]-1-piperidyl]acetyl]pyrrolidine-2-carbonitrile]
10 | 24.5 | 29400 | – | N#Cc1ccc2c(OC3CCN(CC(=O)N4CCC[C@H]4C#N)CC3)cccc2n1 [Example 430, 5-[[1-[2-oxo-2-[(2S)-2-cyanopyrrolidin-1-yl]ethyl]-4-piperidyl]oxy]quinoline-2-carbonitrile]
11 | 19.8 | 6580 | – | Cc1ccc2c(OC3CCN(CC(=O)N4C[C@@H](F)C[C@H]4C#N)CC3)ccnc2c1 [Example 432, (2S,4S)-4-fluoro-1-[2-[4-[(7-methyl-4-quinolyl)oxy]-1-piperidyl]acetyl]pyrrolidine-2-carbonitrile]

Second part, the molecule before the results:

Row | SMILES | IC50 (Recombinant human FAP) [nM] | IC50 (DPP4) [nM] | IC50 (recombinant human DPP7) [nM]
12 | N#C[C@@H]1C[C@H](F)CN1C(=O)CN1CC[C@@H](Nc2cnc3ncccc3c2)C1 [Example 171, (2S,4S)-4-fluoro-1-[2-[(3R)-3-(1,8-naphthyridin-3-ylamino)pyrrolidin-1-yl]acetyl]pyrrolidine-2-carbonitrile] | 8.2 | 2190 | 2790
13 | N#C[C@@H]1C[C@H](F)CN1C(=O)CN1CC[C@@H](Nc2ccc(F)c3ncccc23)C1 [Example 175, (2S,4S)-4-fluoro-1-[2-[(3R)-3-[(8-fluoro-5-quinolyl)amino]pyrrolidin-1-yl]acetyl]pyrrolidine-2-carbonitrile] | 3.5 | 1690 | 4240
14 | N#C[C@@H]1CCCN1C(=O)CN1CC[C@@H](Nc2cccc3ncc(F)cc23)C1 [Example 209, (2S)-1-[2-[(3R)-3-[(3-fluoro-5-quinolyl)amino]pyrrolidin-1-yl]acetyl]pyrrolidine-2-carbonitrile] | 1.7 | 4430 | 7010
15 | N#C[C@@H]1C[C@H](F)CN1C(=O)CN1CCC(Nc2cc(=O)oc3ccccc23)CC1 [Example 379, (2S,4S)-4-fluoro-1-[2-[4-[(2-oxochromen-4-yl)amino]-1-piperidyl]acetyl]pyrrolidine-2-carbonitrile] | 47.4 | 3380 | –
16 | N#C[C@@H]1C[C@H](F)CN1C(=O)CN1CCC(Nc2ccnc3cccnc23)CC1 [Example 380, (2S,4S)-4-fluoro-1-[2-[4-(1,5-naphthyridin-4-ylamino)-1-piperidyl]acetyl]pyrrolidine-2-carbonitrile] | 77.1 | 8160 | –
17 | N#C[C@@H]1C[C@H](F)CN1C(=O)CN1CCC(Nc2ccc3nc(C(F)(F)F)ccc3c2)CC1 [Example 381, (2S,4S)-4-fluoro-1-[2-[4-[[2-(trifluoromethyl)-6-quinolyl]amino]-1-piperidyl]acetyl]pyrrolidine-2-carbonitrile] | 14.3 | 10600 | –
18 | COc1ccnc2ccc(NC3CCN(CC(=O)N4C[C@@H](F)C[C@H]4C#N)CC3)cc12 [Example 382, (2S,4S)-4-fluoro-1-[2-[4-[(4-methoxy-6-quinolyl)amino]-1-piperidyl]acetyl]pyrrolidine-2-carbonitrile] | 80 | 3150 | –
19 | N#C[C@@H]1C[C@H](F)CN1C(=O)CN1CCC(Nc2ccnc(Br)c2)CC1 [Example 383, (2S,4S)-1-[2-[4-[(2-bromo-4-pyridyl)amino]-1-piperidyl]acetyl]-4-fluoro-pyrrolidine-2-carbonitrile] | 39.3 | 2800 | –
20 | N#C[C@@H]1C[C@H](F)CN1C(=O)CN1CCC(Nc2cccc3ncc(C(=O)Nc4ccccc4)cc23)CC1 [Example 388, 5-[[1-[2-oxo-2-[(2S,4S)-2-cyano-4-fluoro-pyrrolidin-1-yl]ethyl]-4-piperidyl]amino]-N-phenyl-quinoline-3-carboxamide] | 70.2 | 6890 | –
